In patent US20150183802A1, “TRICYCLIC SULFONAMIDE DERIVATIVES” (NOVARTIS AG, priority 2013, published 2015):

Molecular target: T1, hNav1.7 channels (Homo sapiens, UniProt Q15858)
T1 construct: host or cells: HEK293
Experiment: hNav1.7 channel in vitro patch-clamp assay
Format: cell-based
Conditions: stable HEK293 cell line expressing hNav1.7; whole cell patch-clamp (QPatch HTX and/or conventional), room temperature; voltage protocol not given
Protocol: hNav1.7 Channel In Vitro Patch-Clamp Assay
Cells: Sable HEK293 (human embryonic kidney) cell line expressing hNav1.7 channels was used in the assay. The cell line was obtained from Millipore (Millipore Corporation, MA).
Patch-clamp recordings: The recordings were performed on QPatch HTX (Sophion Bioscience, Denmark) and/or conventional patch-clamp (Axon Multiclamp 700B systems, Molecular Devices, CA) platforms at room temperature, using whole cell patch-clamp techniques. The composition of extracellular solution was (in mM): HEPES 5, NaCl 40, KCl 3, CaCl2 1, MgCl2 1, Choline Chloride 100. Adjust pH to 7.2 with 1N NaOH, osmolarity to 300-310 mOsm with sucrose. The composition of intracellular solution was (in mM): HEPES 10, NaCl 10, Na2ATP 1, MgCl2 2, KF 135, EGTA 10. Adjust pH to 7.2 with 1N NaOH, osmolarity to 290-300 mOsm with sucrose.
For conventional patch-clamp, 35 mm culture dishes containing hNav1.7 cells were placed on the stage of an inverted microscope and continuously perfused with extracellular solution from a perfusion system (Biologic Rapid solution changer, RSC-160, ˜1 ml/min). […] The recordings were controlled by pCLAMP10 software. Test compounds were dissolved in 100% DMSO to make stock solutions for each test concentration, and then diluted into extracellular solution to achieve final concentration for testing. Final DMSO concentration was less than 0.3%. Two voltage protocols were used in hNav1.7 assay: for non-inactivated protocol, the sodium currents were elicited by a 2 ms pulse to −10 mV from a holding potential of −110 mV. For inactivated protocol, the holding potential was set at V1/2. The voltage was firstly stepped to −110 mV for 50 ms, then to −10 mV for 2 ms and then stepped back to holding potential. In both protocols the voltage command was given in every 10 s. Compound effect (% inhibition) was determined by difference in current amplitude before and after the application of test compounds. IC50 values were determined from concentration-response curves that were obtained with Hill fitting.
For QPatch HTX assay, hNav1.7 cells grown to 50%-80% confluence were rinsed with DPBS and dissociated with Tryple (Invitrogen, 12605-010). The dissociated cells were then mixed with extracellular solution. After centrifuge, the cells were resuspended in extracellular solution and used in the QPatch experiment. The whole-cell protocols, voltage protocols and application protocols were established with QPatch Assay Software 3.4 (Sophion Bioscience, Denmark). Only the inactivated protocol was used in the QPatch assay.

T1 sequence (Q15858 whole entry): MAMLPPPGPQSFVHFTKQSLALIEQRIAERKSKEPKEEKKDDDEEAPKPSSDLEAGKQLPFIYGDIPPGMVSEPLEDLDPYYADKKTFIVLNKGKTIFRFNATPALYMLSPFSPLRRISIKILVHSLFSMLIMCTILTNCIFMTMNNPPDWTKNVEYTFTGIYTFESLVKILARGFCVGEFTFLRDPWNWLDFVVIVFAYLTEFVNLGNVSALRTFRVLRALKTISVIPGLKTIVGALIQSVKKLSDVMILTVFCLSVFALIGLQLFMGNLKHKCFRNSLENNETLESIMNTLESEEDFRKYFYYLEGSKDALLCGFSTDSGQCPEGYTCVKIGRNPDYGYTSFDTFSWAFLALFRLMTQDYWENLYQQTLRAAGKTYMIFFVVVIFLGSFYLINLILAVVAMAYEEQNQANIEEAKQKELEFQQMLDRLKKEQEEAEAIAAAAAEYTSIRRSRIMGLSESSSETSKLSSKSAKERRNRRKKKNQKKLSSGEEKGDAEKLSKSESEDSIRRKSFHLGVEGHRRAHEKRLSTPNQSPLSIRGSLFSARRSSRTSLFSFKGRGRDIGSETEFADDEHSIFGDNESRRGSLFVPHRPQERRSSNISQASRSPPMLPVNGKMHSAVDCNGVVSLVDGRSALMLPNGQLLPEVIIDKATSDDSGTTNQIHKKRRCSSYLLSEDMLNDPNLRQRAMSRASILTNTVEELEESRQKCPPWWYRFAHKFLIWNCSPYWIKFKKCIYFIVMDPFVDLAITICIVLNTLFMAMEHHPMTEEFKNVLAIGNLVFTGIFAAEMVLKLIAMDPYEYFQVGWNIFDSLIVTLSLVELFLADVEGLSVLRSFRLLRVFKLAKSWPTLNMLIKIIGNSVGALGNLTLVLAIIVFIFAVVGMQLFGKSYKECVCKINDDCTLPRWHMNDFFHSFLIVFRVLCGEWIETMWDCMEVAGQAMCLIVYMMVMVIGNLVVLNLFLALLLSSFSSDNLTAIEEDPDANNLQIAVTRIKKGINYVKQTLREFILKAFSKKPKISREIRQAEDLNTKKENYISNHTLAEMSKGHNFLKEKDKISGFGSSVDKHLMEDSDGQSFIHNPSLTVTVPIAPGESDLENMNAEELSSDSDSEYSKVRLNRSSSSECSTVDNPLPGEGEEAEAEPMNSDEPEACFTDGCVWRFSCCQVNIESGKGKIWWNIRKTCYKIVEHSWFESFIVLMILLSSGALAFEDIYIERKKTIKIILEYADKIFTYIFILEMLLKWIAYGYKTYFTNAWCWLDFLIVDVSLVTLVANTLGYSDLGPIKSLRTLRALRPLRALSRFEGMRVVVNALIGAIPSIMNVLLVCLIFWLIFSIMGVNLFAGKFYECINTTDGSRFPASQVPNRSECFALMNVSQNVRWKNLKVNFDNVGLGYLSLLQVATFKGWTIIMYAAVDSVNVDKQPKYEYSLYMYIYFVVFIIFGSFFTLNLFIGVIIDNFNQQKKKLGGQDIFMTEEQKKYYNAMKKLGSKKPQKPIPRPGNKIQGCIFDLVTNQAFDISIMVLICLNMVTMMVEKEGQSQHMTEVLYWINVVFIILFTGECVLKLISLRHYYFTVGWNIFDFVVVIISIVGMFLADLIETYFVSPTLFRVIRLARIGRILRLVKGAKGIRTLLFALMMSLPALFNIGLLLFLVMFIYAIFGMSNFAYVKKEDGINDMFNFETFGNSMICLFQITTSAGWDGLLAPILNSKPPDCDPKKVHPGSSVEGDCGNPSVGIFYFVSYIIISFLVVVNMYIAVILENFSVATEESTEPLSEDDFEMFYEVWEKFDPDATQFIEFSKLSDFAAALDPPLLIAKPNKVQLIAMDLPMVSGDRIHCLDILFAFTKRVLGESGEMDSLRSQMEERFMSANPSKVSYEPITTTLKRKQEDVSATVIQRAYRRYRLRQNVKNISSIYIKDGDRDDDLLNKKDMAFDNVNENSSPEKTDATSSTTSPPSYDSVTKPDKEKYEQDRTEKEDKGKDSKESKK

Structure (SMILES): CC(C)COc1ncc(-n2c(=O)n(C)c3cc4c(NS(=O)(=O)C5CC5)noc4cc32)cc1Cl [Example 35, N-(7-(5-chloro-6-isobutoxypyridin-3-yl)-5-methyl-6-oxo-6,7-dihydro-5H-imidazo[4′,5′:4,5]benzo[1,2-d]isoxazol-3-yl)cyclopropanesulfonamide]
- IC50: 100 nM

Structure (SMILES): CC(C)COc1ncc(-c2ccnc3cc4c(NS(=O)(=O)C5CC5)noc4cc23)cc1Cl [Example 55, N-(8-(5-chloro-6-isobutoxypyridin-3-yl)isoxazolo[5,4-g]quinolin-3-yl)cyclopropanesulfonamide]
- IC50: 850 nM

Structure (SMILES): CC(C)COc1ncc(N2C(=O)C3(CC3)c3cc4c(NS(=O)(=O)C5CC5)noc4cc32)cc1F [Example 22, N-(7′-(5-fluoro-6-isobutoxypyridin-3-yl)-6′-oxo-6′,7′-dihydrospiro[cyclopropane-1,5′-isoxazolo[4,5-f]indol]-3′-yl)cyclopropanesulfonamide]
- IC50: 300 nM

Structure (SMILES): CC(C)COc1ncc(N2C(=O)C3(CCC3)c3cc4c(NS(=O)(=O)C5CC5)noc4cc32)cc1Cl [Example 37, N-(7′-(5-chloro-6-isobutoxypyridin-3-yl)-6′-oxo-6′,7′-dihydrospiro[cyclobutane-1,5′-isoxazolo[4,5-f]indol]-3′-yl)cyclopropanesulfonamide]
- IC50: 40 nM

Structure (SMILES): O=C1N(c2cnc(OCCCC(F)(F)F)c(Cl)c2)c2cc3onc(NS(=O)(=O)C4CC4)c3cc2C12CC2 [Example 17, N-(7′-(5-chloro-6-(4,4,4-trifluorobutoxyl)pyridin-3-yl)-6′-oxo-6′,7′-dihydrospiro[cyclopropane-1,5′-isoxazolo[4,5-f]indol]-3′-yl)cyclopropanesulfonamide]
- IC50: 200 nM

Structure (SMILES): CC(C)COc1ncc(-c2nccc3cc4c(NS(=O)(=O)C5CC5)noc4cc23)cc1Cl [Example 50, N-(8-(5-chloro-6-isobutoxypyridin-3-yl)isoxazolo[4,5-g]isoquinolin-3-yl)cyclopropanesulfonamide]
- IC50: 110 nM

Structure (SMILES): CC(C)COc1ncc(-n2cc(C(N)=O)c3cc4c(NS(=O)(=O)C5CC5)noc4cc32)cc1Cl [Example 49, 7-(5-chloro-6-isobutoxypyridin-3-yl)-3-(cyclopropanesulfonamido)-7H-isoxazolo[4,5-f]indole-5-carboxamide]
- IC50: 1180 nM

Structure (SMILES): CC(C)COc1ncc(N2C(=O)C3(CC3)c3cc4c(NS(N)(=O)=O)noc4cc32)cc1Cl [Example 8, N-(7′-(5-chloro-6-isobutoxypyridin-3-yl)-6′-oxo-6′,7′-dihydrospiro[cyclopropane-1,5′-isoxazolo[4,5-f]indol]-3′-yl)aminosulfonamide]
- IC50: 2000 nM

Structure (SMILES): CCS(=O)(=O)Nc1noc2cc3c(cc12)C1(CC1)C(=O)N3c1cnc(OCC(C)C)c(Cl)c1 [Example 4, N-(7′-(5-chloro-6-isobutoxypyridin-3-yl)-6′-oxo-6′,7′-dihydrospiro[cyclopropane-1,5′-isoxazolo[4,5-f]indol]-3′-yl)ethanesulfonamide]
- IC50: 100 nM

Structure (SMILES): O=C1N(c2cnc(OCC3CCC3)c(Cl)c2)c2cc3onc(NS(=O)(=O)C4CC4)c3cc2C12CC2 [Example 25, N-(7′-(5-chloro-6-(cyclobutylmethoxy)pyridin-3-yl)-6′-oxo-6′,7′-dihydrospiro[cyclopropane-1,5′-isoxazolo[4,5-f]indol]-3′-yl)cyclopropanesulfonamide]
- IC50: 80 nM

Structure (SMILES): Cc1cnc(-c2cnc(OCC(C)C)c(Cl)c2)c2cc3onc(NS(=O)(=O)C4CC4)c3cc12 [Example 60, N-(8-(5-chloro-6-isobutoxypyridin-3-yl)-5-methylisoxazolo[4,5-g]isoquinolin-3-yl)cyclopropanesulfonamide]
- IC50: 1870 nM
